Literature values as cited in patent publication US20060106070A1, “Novel pyridine-based metal chelators as antiviral agents” (Bioflexis, LLC, priority 2004, published 2006).

Columns and labels:
[1] = molecular target: T1, HIV-1 integrase (Human immunodeficiency virus type 1 group M subtype B, UniProt P12497); conditions: result in words
T1 construct: HIV-1 recombinant IN (HIV-1NL 4-3 Integrase); purchased NIH AIDS Reagent program 2959

[2] = molecular target: T1, HIV-1 integrase; conditions: result in words; remark: listed apart in the source

Row | SMILES | inhibition of strand transfer reaction [1] | inhibition of 3′ processing [2]
1 | O=C(O)C(=O)CC(=O)c1cc(OCc2ccccc2)cc(OCc2ccccc2)c1 [L-708, 906] | inhibit strand transfer reaction | do not inhibit 3′ processing
2 | O=C(O)C(=O)CC(=O)c1cccn1Cc1ccc(F)cc1 [L-731,988] | inhibit strand transfer reaction | do not inhibit 3′ processing
